Measurements taken from patent publication US20240376435A1, “KIDNEY ORGANOID AND METHOD FOR PRODUCING SAME” (OTSUKA PHARMACEUTICAL CO., LTD., priority 2021, published 2024).

Assays:
[1] = tested on: proximal tubule marker genes; assay: Expression level of proximal tubule marker genes in kidney organoid (LTL MACS, quantitative PCR); type: cell-based, human; conditions: for expression levels of almost all proximal tubule marker genes: agonist singly at 1 μM, eight days from day 15, among Control, CP1 and 9cisRA1 groups; for expression levels of maturation markers of proximal tubular cells: ACE2, AQP6, CUBN
Description: (§1) The kidney organoid was transferred to a centrifuge tube, and a cell dissociation solution (DPBS (+), 5 mg/mL Bacillus Licheniformis Protease (Sigma-Aldrich), 125 U/mL DNasc (Roche)) was added to the centrifuge tube. Up to 12 organoids were placed in one centrifuge tube. The centrifuge tube was incubated at 6° C. for 30 minutes. During the 30-minute incubation, pipetting was performed every five minutes to prepare a cell suspension containing cells separated from the organoids. To 1 mL of the obtained cell suspension, 4 mL of ice-cold diluted solution A (DPBS (−), 0.5% FBS, 2 mM EDTA, 125 U/mL DNase) was added. The centrifuge tube containing the diluted cell suspension was centrifuged at 300 rcf and 4° C. for 10 minutes, and the supernatant was removed. An ice-cooled diluted solution A was added to the precipitate for resuspension. The cell suspension was centrifuged again and the precipitate was resuspended in the diluted solution A. The obtained cell suspension was transferred to a tube with a 35 μm filter (Falcon) and passed through the filter to prepare a cell suspension containing single cells.
LTL-biotin (1:50) was added to the prepared cell suspension containing single cells and incubated at 4° C. for 15 minutes. Thereafter, the cell suspension was centrifuged at 300 rcf and 4° C. for five minutes, and the supernatant was removed. An ice-cooled diluted solution A was added to the precipitate for resuspension. Centrifuging the cell suspension and obtaining a cell suspension from the precipitate were performed two more times. Anti-biotin microBeads Ultra-Pure was added to the obtained cell suspension in the diluted solution A and incubated at 4° C. for 15 minutes. Thereafter, the cell suspension was centrifuged at 300 ref and 4° C. for five minutes, and the supernatant was removed. The ice-cooled diluted solution A was added to the precipitate for resuspension. This operation was repeated two more times. From the obtained cell suspension in the diluted solution A, cells to which LTL binds (also referred to as LTL-binding cells or LTL-positive cells) were obtained by a MACS method. More specifically, the cell suspension was applied to an MS column (Miltenyi Biotec B.V. & Co. KG) fixed in a magnetic field, and LTL-positive proximal tubular cells were obtained as a positive fraction.
(§2) Total RNA was extracted from the obtained cell suspension containing LTL-positive proximal tubular cells with a Purelink RNA micro kit (Thermofisher Scientific Inc.). Using total RNA obtained as a template, cDNA synthesis was performed using PrimeScript™ RTmastermix (Perfect Real Time) (Takara Bio Inc.). The synthesized cDNA was quantified by real-time PCR with TB Green® Premix Ex Taq™ II (Tli RNase H Plus) (TaKaRa Bio Inc.). Expression level analysis was performed using this quantitative PCR.
On the 15th day of differentiation induction, the induction medium C was replaced with STEMdiff APEL2 medium (0.3 μM CP775146, 1 μM 9-cis retinoic acid, 1% PFHM II, Antibiotic-Antimycotic), and the obtained early kidney organoids were further cultured for eight days (until the 23rd day of differentiation induction).
On the 23rd day of differentiation induction, the degree of maturation of the proximal tubule was examined. The degree of maturation was determined based on the expression level of maturation markers of proximal tubular cells in the kidney organoid by the MACS method with LTL.
In the step C, CP1 group was prepared by culturing, for eight days, the kidney organoid on the 15th day of differentiation induction in STEMdiff APEL2 medium (1 μM CP775146, 1% PFHM II, Antibiotic-Antimycotic), which is a medium obtained by removing retinoic acid from the induction medium C. […]

[2] = tested on: PPARA downstream gene group; assay: Expression level of PPARA downstream gene group in kidney organoid (LTL MACS, quantitative PCR); type: cell-based, human; conditions: agonist singly at 1 μM, eight days from day 15; among Control, CP1 and 9cisRA1 groups
Description: as §1, with “The cell suspension was centrifuged again and the precipitate was resuspended in the diluted solution A. The obtained cell suspension was transferred to a tube with a 35 μm filter (Falcon) and passed through the filter to prepare a cell suspension containing single cells.” left out
as §2, with “Using total RNA obtained as a template, cDNA synthesis was performed using PrimeScript™ RTmastermix (Perfect Real Time) (Takara Bio Inc.).” left out, “PCR. […]” for “PCR.”

SMILES | expression levels of almost all proximal tubule marker genes [1] | expression levels of almost all PPARA downstream gene groups [2] | further results
CC(C)c1ccc(CC(=O)N2CCC[C@@H](c3cccc(OC(C)(C)C(=O)O)c3)C2)cc1 [CP775146] | No significant difference | No significant difference | –
Cc1cccc(Nc2cc(Cl)nc(SCC(=O)O)n2)c1C [pirinic acid] | – | – | expression of proximal tubule markers ([1]; Example 9, pirinic acid alone in step C, n=3): increased
CCC(=O)NC[C@H](Cc1ccc(OCCc2nc(-c3ccccc3)oc2C)cc1)N/C(C)=C\C(=O)c1ccc(C(F)(F)F)cc1 [GW6471] | – | – | expression levels of maturation markers of proximal tubular cells ([1]; Comparative Example 1, PPARA antagonist at a predetermined concentration in step C, vs control, UGT2A3, AZGP1, BHMT, LRP2, ABCB1, APOA1, APOC3, FABP1): significantly decreased; expression levels of SLC39A4 and CYP27A1 ([1]; Comparative Example 1, PPARA antagonist in step C, vs control): tendency for the expression levels of SLC39A4 (FIG. 12c) and CYP27A1 (FIG. 12l) to decrease; expression levels of maturation markers of proximal tubular cells ([1]; Comparative Example 2, RXR antagonist in step C, vs control, UGT2A3, AZGP1, SLC39A4, BHMT, LRP2, ABCB1, APOA1, APOC3, CYP27A1, FABP1): significantly decreased
CC1=C(/C=C/C(C)=C\C=C\C(C)=C\C(=O)O)C(C)(C)CCC1 [9-cis retinoic acid] | No significant difference | No significant difference | –
